This is an account of results in patent publication US7615651B2, “Diaryl, dipyridinyl and aryl-pyridinyl derivatives and uses thereof” (Pfizer Inc., priority 2006, dated 2009).

T3 sequence (P35372 whole entry): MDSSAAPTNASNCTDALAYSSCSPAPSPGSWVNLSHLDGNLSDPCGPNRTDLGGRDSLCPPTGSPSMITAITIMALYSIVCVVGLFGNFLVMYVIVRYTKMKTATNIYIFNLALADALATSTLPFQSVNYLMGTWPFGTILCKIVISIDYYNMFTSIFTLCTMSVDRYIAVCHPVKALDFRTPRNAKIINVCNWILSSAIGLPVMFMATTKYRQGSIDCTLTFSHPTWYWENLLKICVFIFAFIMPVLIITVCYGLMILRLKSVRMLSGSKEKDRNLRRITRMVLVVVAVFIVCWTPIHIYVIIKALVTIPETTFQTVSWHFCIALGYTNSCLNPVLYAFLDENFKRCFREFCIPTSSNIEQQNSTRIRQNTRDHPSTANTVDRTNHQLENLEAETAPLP
T1 sequence (P41143 whole entry): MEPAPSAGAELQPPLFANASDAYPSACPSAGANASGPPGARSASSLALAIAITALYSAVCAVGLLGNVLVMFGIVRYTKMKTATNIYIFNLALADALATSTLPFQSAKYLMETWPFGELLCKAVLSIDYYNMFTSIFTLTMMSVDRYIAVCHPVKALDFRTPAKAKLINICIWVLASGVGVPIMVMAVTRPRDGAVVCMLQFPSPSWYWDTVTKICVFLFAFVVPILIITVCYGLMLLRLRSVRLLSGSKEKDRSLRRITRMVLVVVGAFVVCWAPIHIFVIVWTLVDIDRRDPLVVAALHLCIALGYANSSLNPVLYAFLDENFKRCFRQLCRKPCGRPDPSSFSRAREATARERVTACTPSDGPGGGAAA

The first test has as its target T1, opioid receptor delta (Homo sapiens, UniProt P41143).
T1 construct: expressed in transfected cells
The test is described as follows: GTPγ[35S] binding assay, antagonism of BW-373U86. In kind it is biochemical. The settings on record: average Ki; antagonism of BW-373U86 (1 nM) stimulated GTPγ[35S] binding, delta opioid receptor membranes; read-out: Delta functional (GTPγ[35S] binding Ki). The procedure:
(§1) Membranes were prepared from cells as described (Bass et al, 1996). GTPγ[5S] binding assays were performed in a 96 well FlashPlate™ format in duplicate using […] GTPγ[^35S] and 5 μg membrane per well in assay buffer composed of 50 mM Tris HCl, pH 7.4, 5 mM MgCl2, 1 mM EDTA, 100 mM NaCl, 30 μM GDP, 0.1% bovine serum albumin and the following protease inhibitors: 100 μg/ml bacitracin, 100 μg/ml benzamidine, 5 μg/ml aprotinin, 5 μg/ml leupeptin. The assay mix was then incubated at 30° C. with increasing concentrations of antagonist (10^−10 M to 10^−5 M) for 10 minutes and challenged with the agonists BW-373U86 (1 nM), dynorphin-A (10 nM), […] (1 μM) for opioid receptors delta, kappa, and mu, respectively. The assays were performed at 30° C. for one hour. The FlashPlates were then centrifuged at 2000×g for 10 minutes. Stimulation of GTPγ[^35S] binding was then quantified using a Wallac Microbeta and Ki calculations were done using Prism™ by Graphpad.
A general note: GTPγS is a poorly hydrolysed GTP analogue; its binding reports G protein activation.
Turning to `Cc1cc(CNCCC(C)C)cc(C)c1-c1cccc(C(N)=O)c1` [1A-02], the Ki turned out to be 2.59 nM.

On to `CC(C)CCNCc1cc(Cl)c(-c2cccc(C(N)=O)c2)c(Cl)c1` [1A-03], for which the Ki came out at 4.87 nM.

Consider `CC(C)CCNCc1ccc(-c2cccc(C(N)=O)c2)c(C#N)c1` [1A-04], for which the Ki came out at 13.8 nM.

As to `COc1cc(-c2cccc(C(N)=O)c2)ccc1CNCCC(C)C` [1A-05], the Ki worked out at 10.7 nM.

Turning to `CC(C)CCNCc1ccc(-c2cccc(C(N)=O)c2)cc1O` [1A-06], the Ki stood at 0.0351 nM.

With `CC(C)CCNCc1cc(F)c(-c2cccc(C(N)=O)c2)cc1F` [1A-08], the Ki was determined as 3160 nM.

With `CC(C)CCNCc1cc(F)c(-c2cc(C(N)=O)ccc2F)cc1F` [1A-09], the Ki is 16.7 nM.

Consider `CC(C)CCNCc1ccc(-c2cc(C(N)=O)ccc2F)cc1F` [1A-12], for which the Ki was 17.2 nM.

Turning to `CC(C)CCNCc1ccc(-c2cccc(C(N)=O)c2)cc1Cl` [1A-13], the Ki was 33.6 nM.

On to `Cc1cc(CNCCC(C)C)ccc1-c1ccc(C(N)=O)cc1` [1B-01], for which the Ki stood at 13.6 nM.

In the case of `CC(C)CCNCc1c(F)cc(-c2ccc(C(N)=O)cc2)cc1F` [1B-05], the Ki was found to be 3000 nM.

Consider `Cc1cc(C(N)=O)ccc1-c1ccc(CNCCC(C)C)c(F)c1` [1B-08], for which the Ki is 1.97 nM.

On to `COCCNCc1c(F)cc(-c2ccc(C(N)=O)cc2C)cc1F` [1B-09], for which the Ki turned out to be 11 nM.

As to `CC(C)CCNCc1ccc(-c2cccc(C(N)=O)c2)cn1` [1C-01], the Ki was found to be 22 nM.

`Cc1cc(C(N)=O)ccc1-c1ccc(CNCCC(C)C)nc1` [1D-01]: the Ki stood at 11.7 nM.

As for `Cc1cc(C(N)=O)ccc1-c1ccc(CNCCC(C)C)cn1` [1D-02], the Ki was 4.33 nM.

`Cc1cc(CNCCC(C)C)ccc1-c1ncc(C(N)=O)cc1C` [1D-07]: the Ki turned out to be 9.3 nM.

Consider `CC(C)CCNCc1ccc(-c2cccc(C(N)=O)c2)cc1` [4A-01], for which the Ki was determined as 15.7 nM.

As for `CC(C)CCNCc1ccc(-c2ccc(F)c(C(N)=O)c2)cc1` [4A-02], the Ki was 1.55 nM.

With `CC(C)CCNCc1ccc(-c2cc(F)cc(C(N)=O)c2)cc1` [4A-04], the Ki turned out to be 21.4 nM.

For the molecule `CC1(C)OCC(CNCc2ccc(-c3cccc(C(N)=O)c3)c(Cl)c2)O1` (stereo not drawn) [4A-10], the Ki was found to be 353 nM.

Staying with this test, now noted: read-out: Delta functional (GTPγ[35S] binding Ki).
Regarding `NC(=O)c1cccc(-c2cc(F)c(CNC3Cc4ccccc4C3)c(F)c2)c1` [1A-10], the Ki was determined as 5.5 nM.

Take `NC(=O)c1ccc(F)c(-c2cc(F)c(CNC3Cc4ccccc4C3)c(F)c2)c1` [1A-11]: the Ki came out at 6.62 nM.

The next test deals with T2, opioid receptor kappa (Homo sapiens, UniProt P41145).
T2 construct: expressed in transfected cells
T2 sequence (P41145 whole entry): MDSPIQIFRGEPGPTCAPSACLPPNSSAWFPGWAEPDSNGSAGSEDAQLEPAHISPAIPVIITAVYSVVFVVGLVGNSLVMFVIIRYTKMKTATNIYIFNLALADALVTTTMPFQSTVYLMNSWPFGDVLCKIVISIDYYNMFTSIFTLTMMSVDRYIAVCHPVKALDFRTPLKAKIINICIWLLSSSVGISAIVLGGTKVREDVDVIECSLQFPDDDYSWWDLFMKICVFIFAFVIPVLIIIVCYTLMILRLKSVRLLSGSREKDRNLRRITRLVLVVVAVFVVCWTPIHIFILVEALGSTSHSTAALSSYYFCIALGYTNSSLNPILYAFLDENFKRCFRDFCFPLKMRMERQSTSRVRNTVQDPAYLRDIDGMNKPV
The test is described as follows: GTPγ[35S] binding assay, antagonism of dynorphin-A. In kind it is biochemical. The settings on record: average Ki; antagonism of dynorphin-A (10 nM) stimulated GTPγ[35S] binding, kappa opioid receptor membranes; read-out: Kappa functional (GTPγ[35S] binding Ki). The method, then: as §1
For the molecule `Cc1cc(CNCCC(C)C)cc(C)c1-c1cccc(C(N)=O)c1` [1A-02], the Ki turned out to be 6.72 nM.

`CC(C)CCNCc1cc(Cl)c(-c2cccc(C(N)=O)c2)c(Cl)c1` [1A-03]: the Ki is 3.76 nM.

With `CC(C)CCNCc1ccc(-c2cccc(C(N)=O)c2)c(C#N)c1` [1A-04], the Ki turned out to be 28.8 nM.

As for `COc1cc(-c2cccc(C(N)=O)c2)ccc1CNCCC(C)C` [1A-05], the Ki turned out to be 16.6 nM.

Regarding `CC(C)CCNCc1ccc(-c2cccc(C(N)=O)c2)cc1O` [1A-06], the Ki is 101 nM.

For the molecule `CC(C)CCNCc1cc(F)c(-c2cccc(C(N)=O)c2)cc1F` [1A-08], the Ki was found to be 87.3 nM.

As to `CC(C)CCNCc1cc(F)c(-c2cc(C(N)=O)ccc2F)cc1F` [1A-09], the Ki is 51.1 nM.

With `CC(C)CCNCc1ccc(-c2cc(C(N)=O)ccc2F)cc1F` [1A-12], the Ki is 34.9 nM.

`CC(C)CCNCc1ccc(-c2cccc(C(N)=O)c2)cc1Cl` [1A-13]: the Ki amounted to 23.4 nM.

For `Cc1cc(CNCCC(C)C)ccc1-c1ccc(C(N)=O)cc1` [1B-01], the Ki is 24.8 nM.

For the molecule `CC(C)CCNCc1c(F)cc(-c2ccc(C(N)=O)cc2)cc1F` [1B-05], the Ki came out at 162 nM.

Take `Cc1cc(C(N)=O)ccc1-c1ccc(CNCCC(C)C)c(F)c1` [1B-08]: the Ki came to 1.89 nM.

In the case of `COCCNCc1c(F)cc(-c2ccc(C(N)=O)cc2C)cc1F` [1B-09], the Ki came to 17.9 nM.

For the molecule `CC(C)CCNCc1ccc(-c2cccc(C(N)=O)c2)cn1` [1C-01], the Ki worked out at 114 nM.

Regarding `Cc1cc(C(N)=O)ccc1-c1ccc(CNCCC(C)C)nc1` [1D-01], the Ki worked out at 17.1 nM.

Take `Cc1cc(C(N)=O)ccc1-c1ccc(CNCCC(C)C)cn1` [1D-02]: the Ki amounted to 14.7 nM.

Regarding `Cc1cc(CNCCC(C)C)ccc1-c1ncc(C(N)=O)cc1C` [1D-07], the Ki is 8.99 nM.

In the case of `CC(C)CCNCc1ccc(-c2cccc(C(N)=O)c2)cc1` [4A-01], the Ki was 26.9 nM.

Take `CC(C)CCNCc1ccc(-c2ccc(F)c(C(N)=O)c2)cc1` [4A-02]: the Ki is 724 nM.

Take `CC(C)CCNCc1ccc(-c2cc(F)cc(C(N)=O)c2)cc1` [4A-04]: the Ki was found to be 60.1 nM.

On to `CC1(C)OCC(CNCc2ccc(-c3cccc(C(N)=O)c3)c(Cl)c2)O1` (stereo not drawn) [4A-10], for which the Ki stood at 31.3 nM.

Still in this test, the particulars now being: read-out: Kappa functional (GTPγ[35S] binding Ki).
For `NC(=O)c1cccc(-c2cc(F)c(CNC3Cc4ccccc4C3)c(F)c2)c1` [1A-10], the Ki was determined as 14.4 nM.

Turning to `NC(=O)c1ccc(F)c(-c2cc(F)c(CNC3Cc4ccccc4C3)c(F)c2)c1` [1A-11], the Ki is 12.4 nM.

The next test addresses T3, opioid receptor mu (Homo sapiens, UniProt P35372).
T3 construct: expressed in transfected cells
Description: GTPγ[35S] binding assay, antagonism of endorphin. Format: biochemical. The settings on record: average Ki; antagonism of endorphin (1 μM) stimulated GTPγ[35S] binding, mu opioid receptor membranes; read-out: Mu functional (GTPγ[35S] binding Ki). The procedure:
as §1
On to `Cc1cc(CNCCC(C)C)cc(C)c1-c1cccc(C(N)=O)c1` [1A-02], for which the Ki came to 1.25 nM.

Take `CC(C)CCNCc1cc(Cl)c(-c2cccc(C(N)=O)c2)c(Cl)c1` [1A-03]: the Ki is 1.2 nM.

For the molecule `CC(C)CCNCc1ccc(-c2cccc(C(N)=O)c2)c(C#N)c1` [1A-04], the Ki turned out to be 4.64 nM.

For `COc1cc(-c2cccc(C(N)=O)c2)ccc1CNCCC(C)C` [1A-05], the Ki came out at 14 nM.

Regarding `CC(C)CCNCc1ccc(-c2cccc(C(N)=O)c2)cc1O` [1A-06], the Ki was 52.3 nM.

In the case of `CC(C)CCNCc1cc(F)c(-c2cccc(C(N)=O)c2)cc1F` [1A-08], the Ki came to 70.9 nM.

Take `CC(C)CCNCc1cc(F)c(-c2cc(C(N)=O)ccc2F)cc1F` [1A-09]: the Ki amounted to 64.8 nM.

In the case of `CC(C)CCNCc1ccc(-c2cc(C(N)=O)ccc2F)cc1F` [1A-12], the Ki was determined as 41.1 nM.

For `CC(C)CCNCc1ccc(-c2cccc(C(N)=O)c2)cc1Cl` [1A-13], the Ki came to 25 nM.

In the case of `Cc1cc(CNCCC(C)C)ccc1-c1ccc(C(N)=O)cc1` [1B-01], the Ki worked out at 17.8 nM.

Regarding `CC(C)CCNCc1c(F)cc(-c2ccc(C(N)=O)cc2)cc1F` [1B-05], the Ki is 107 nM.

For the molecule `Cc1cc(C(N)=O)ccc1-c1ccc(CNCCC(C)C)c(F)c1` [1B-08], the Ki was 3.24 nM.

Consider `COCCNCc1c(F)cc(-c2ccc(C(N)=O)cc2C)cc1F` [1B-09], for which the Ki turned out to be 70.5 nM.

For `CC(C)CCNCc1ccc(-c2cccc(C(N)=O)c2)cn1` [1C-01], the Ki was 154 nM.

In the case of `Cc1cc(C(N)=O)ccc1-c1ccc(CNCCC(C)C)nc1` [1D-01], the Ki amounted to 20.5 nM.

In the case of `Cc1cc(C(N)=O)ccc1-c1ccc(CNCCC(C)C)cn1` [1D-02], the Ki is 43.1 nM.

Take `Cc1cc(CNCCC(C)C)ccc1-c1ncc(C(N)=O)cc1C` [1D-07]: the Ki worked out at 1.43 nM.

For the molecule `CC(C)CCNCc1ccc(-c2cccc(C(N)=O)c2)cc1` [4A-01], the Ki was 32.8 nM.

Regarding `CC(C)CCNCc1ccc(-c2ccc(F)c(C(N)=O)c2)cc1` [4A-02], the Ki amounted to 44800 nM.

In the case of `CC(C)CCNCc1ccc(-c2cc(F)cc(C(N)=O)c2)cc1` [4A-04], the Ki came out at 92.1 nM.

On to `CC1(C)OCC(CNCc2ccc(-c3cccc(C(N)=O)c3)c(Cl)c2)O1` (stereo not drawn) [4A-10], for which the Ki amounted to 8.49 nM.

The test is the same for the next values; noted with them: read-out: Mu functional (GTPγ[35S] binding Ki).
Consider `NC(=O)c1cccc(-c2cc(F)c(CNC3Cc4ccccc4C3)c(F)c2)c1` [1A-10], for which the Ki amounted to 0.966 nM.

As to `NC(=O)c1ccc(F)c(-c2cc(F)c(CNC3Cc4ccccc4C3)c(F)c2)c1` [1A-11], the Ki is 0.843 nM.
